Data from patent US7741344B2, “Process for preparing purified S-BEL and R-BEL and compositions thereof” (Washington University in St. Louis, priority 2002, dated 2010).

Experiments:
[1] = test system: PKCδ; test: AVP-induced PKC translocation in A-10 cells (Western), PKCδ; assay type: cell-based, rat; settings: 5 μM pretreatment 15 min, 1 μM AVP; FIG. 8
Experimental: (§1) Determination of PKC Translocation—Confluent A-10 cells in 10 cm dishes were washed twice with DMEM without serum, followed by incubation with either 5 μM (S)-BEL or ethanol vehicle in DMEM for 15 min at 37° C. This media was then removed and DMEM with or without 1 μM AVP was incubated with the cells for 5 min. After washing with ice-cold PBS, the cells were collected by scraping into 20 mM Tris-HCl, pH 7.4 containing 0.33 M sucrose, 5 mM EDTA, 0.5 mM 4(2-aminoethyl)benzenesulfonylfluoride, and 5 μg/ml leupeptin and were lysed by three cycles of flash freezing with liquid nitrogen and thawing. Each sample was then further homogenized utilizing a teflon homogenizer before isolating the low speed pellet (1,000×g), membrane (100,000×g pellet), and cytosol (100,000×g supernatant) fractions. The protein concentrations of the fractions were determined utilizing the bicinchoninic acid (BCA) assay (Pierce) with BSA as a standard. Samples were electrophoresed and subjected to ECL Western analysis utilizing rabbit polyclonal antibodies against PKCα and PKCε as described above for MAPK phosphorylation. For blots incubated with mouse monoclonal antibodies against PKCδ and PKCι., an anti-mouse IgG (Fab specific)-peroxidase conjugate was utilized in place of the protein A-peroxidase conjugate. […]

[2] = target: T1, α-chymotrypsin (Bos taurus, UniProt P00766); test: Inhibition of α-chymotrypsin by BEL; assay type: biochemical; settings: 2 μM chymotrypsin, up to 5-fold molar excess of inhibitor, 5 min 22° C., then 1000-fold dilution with 100 mM hydrazine; FIG. 3
T1 construct: purchased Sigma
Experimental: Inhibition of α-Chymotrypsin by BEL—The kinetics of α-chymotrrpsin inactivation by (R)-, (S)-, and rac-BEL were performed similar to methods previously described (36). The concentration of α-chymotrypsin (MW=25,000) was determined using an A^1%=20 (1 cm pathlength) at 280 nm (37). Briefly, one milliliter of α-chymotrypsin (2 μM) was incubated with up to a 5-fold molar excess of (R)-,(S)-, or rac-BEL dissolved in acetonitrile or vehicle alone for 5 mm at 22° C. in 0.1 M sodium phosphate buffer, pH 7.2. […] Following incubation at 22° C. for 1 hr, chymotrypsin activity in each diluted sample was measured utilizing a SPECTRAmax GeminiXS microplate spectrofluorometer with N-succinyl-Ala-Ala-Pro-Phe-7-amidomethylcoumarin (50 μM) as substrate for 1 mm at 25° C. Excitation and emission wavelengths were 380 nm and 460 nm, respectively.
Chymotrypsin (2 μM) in 0.1 M sodium phosphate buffer, pH 7.2 was incubated with the indicated concentrations of racemic, (R)-, or (S)-BEL for 5 mm. This solution was then diluted 1000-fold in 0.1 M sodium phosphate buffer, pH 7.2 containing 100 mM hydrazine and incubated for 1 hr at 22° C. Chymotrypsin proteolytic activity was measured spectrofluorometrically using N-succinyl-Ala-Ala-Pro-Phe-7-amido-4-methylcoumarin (50 μM) as substrate.

[3] = test system: PKCε; test: AVP-induced PKC translocation in A-10 cells (Western), PKCε; assay type: cell-based, rat; settings: 5 μM pretreatment 15 min, 1 μM AVP; FIG. 8
Experimental: as §1

[4] = test system: purified recombinant iPLA2β; test: Assay of iPLA2β inhibition by BEL (radiolabeled phospholipid substrate); assay type: biochemical
Experimental: Recombinant iPLA2 Enzymes—Recombinant iPLA2β was expressed and purified from Sf9 cells as previously described (35).
Assay of iPLA2β and iPLA2γ Inhibition by BEL—Purified recombinant iPLA2β or Sf9 cell membranes containing recombinant iPLA2γ were incubated with (R) BEL, (S) BEL, racemic BEL, or ethanol vehicle for 3 mm at 22° C. in the presence of 100 mM Tris-HCl (pH 7.0) and 4 mM EGTA (for iPLA2β) or 100 mM Tris-acetate (pH 8.0) and 4 mM EGTA (for iPLA2γ). The concentration of BEL used for each test ranged from 0 to 16 μM. L-α-1-palmitoyl-2-[1^14C]-arachidonyl-phosphatidylcholine (5 μM final concentration) or L-α-1-palmitoyl-2-[1-^14C]-oleoyl-phosphatidylcholine (5 μM final concentration) in ethanol was then added to each sample and incubated at 37° C. for 2 min. Reactions were terminated by extraction of radiolabeled products into butanol, and reactants and products were separated by thin layer chromatography using Whatman LK6D 60 Å Silica Gel plates with petroleum ether/ethyl ether/acetic acid (70:30:1) as the mobile phase. Regions corresponding to the migration of a fatty acid standard visualized by iodine staining were scraped into vials and radioactivity was quantified by scintillation spectrometry.
Panel A—Purified recombinant iPLA2β (1 μg/ml) in 100 mM Tris-HCl, pH 7.3 containing 1 mM EGTA was preincubated at 22° C. for 3 mm in the presence of the indicated concentrations of (R)-, (S)-, or rac-BEL or ethanol vehicle alone (1% final concentration). Radiolabeled substrate (L-α-1-palmitoyl-2-[1-^14C]-arachidonyl-phosphatidylcholine, 5 μM final concentration) was then added to each reaction and incubated at 37° C. for 2 min. Reactions were terminated by extraction of remaining substrate and products into butanol, separation by TLC, and quantification of released radiolabeled fatty acid by scintillation spectrometry as described in Experimental Procedures.

[5] = test system: MAPK (ERK2) phosphorylation; test: AVP-induced MAPK phosphorylation in A-10 cells (Western); assay type: cell-based, rat; settings: 5 μM, 15 min, 1 μM AVP; FIG. 9
[6] = test system: A-10 smooth muscle cells; test: AVP-induced [3H]-arachidonic acid liberation from A-10 cells; assay type: cell-based, rat; settings: for restoration of arachidonic acid release in (S)-BEL treated A-10 cells: 5 μM (S)-BEL pretreatment, then 1 μM AVP with PMA (1 μM) or DOG (10 μM), FIG. 7
Experimental: Quantification of [^3H]-Arachidonic Acid Liberation from A-10 Phospholipids—Rat aortic smooth muscle A-10 cells, cultured in 60 mm dishes (2.5×10^5 cells/dish), were radiolabeled with 0.5 μCi [^3H]-arachidonic acid per dish as previously described (29). Cells were washed once with DMEM containing 0.25% fatty acid free bovine serum albumin followed by two washes with DMEM alone. Cells were then incubated with the indicated concentrations of (R)-, (S)-, rac-BEL, or ethanol vehicle (0.1% final concentration) in DMEM for 20 min. This media was removed and the cells were then incubated with DMEM containing 10% heat-inactivated fetal bovine serum in the absence or presence of 1 μM AVP. In some tests, PMA (1 μM) or DOG (10 μM) was added to the medium containing AVP. After 5 mm, 1 ml of this medium was removed, lipids were extracted into 2 ml of chloroform/methanol/acetic acid (25:24:1 v/v) (38), and the remaining cells were scraped into 1 ml of deionized water prior to lipid extraction as described above. The chloroform layer was evaporated under nitrogen and the extracted lipids were separated by thin layer chromatography (petroleum ether/ethyl ether/glacial acetic acid 70:30:1). Regions containing fatty acids and phospholipids were scraped into vials and radioactivity was quantified by liquid scintillation spectrometry.
A-10 cells (2.5×10^5 cells/dish) were radiolabeled with [^3H]-arachidonic acid (0.5 μCi/dish) for 20 hrs. After washing to remove unincorporated [^3H]-arachidonic acid, cells were then incubated with either 1 μM or 5 μM (R)-BEL, (S)-BEL, rac-BEL, or ethanol vehicle (0.1%) in DMEM for 20 mm. This media was removed and the cells were then incubated with 3 ml of DMEM containing 10% heat-inactivated fetal bovine serum with or without 1 μM AVP. After 5 min, 1 ml of this medium was removed and lipids were extracted into 2 ml of chloroform/methanol/acetic acid (25:24:1). The remaining cells were scraped into 1 ml of deionized water and total lipids were extracted as described above. The chloroform layer was evaporated under nitrogen and the extracted lipids were separated by TLC. Regions containing fatty acids and phospholipids were scraped into vials and radioactivity was quantified by liquid scintillation spectrometry. Results are representative of four separate tests.
A-10 cells were radiolabeled with [^3H]-arachidonic acid, washed, and pre-incubated with 5 μM (S)-BEL or ethanol vehicle alone for 15 min as described in FIG. 5. DMEM media containing 10% heat-inactivated fetal bovine serum with or without 1 μM AVP was then added to the cells. After 5 min at 37° C., [^3H]-arachidonic acid released into the media and remaining within the cells (free and incorporated into phospholipids) was extracted into chloroform, separated by TLC, and quantified by liquid scintillation spectrometry as described in “Experimental Procedures”. Results are representative of three separate tests.

Q: What does the source list for `O=C1O/C(=C/Br)CC[C@H]1c1cccc2ccccc12` [(S)-BEL, (S)(E)-6-(bromomethylene)-3-(1-naphthalenyl)-2H-tetrahydropyran-2-one]?
A: AVP-induced translocation of PKCδ to the membrane fraction [1]: does not effect; inhibition of chymotrypsin [2]: considerably less potent; AVP-induced translocation of PKCε to the membrane fraction [3]: does not effect; selectivity for inhibition of iPLA2β [4]: 10 fold; inhibition of iPLA2β, fold more potent than (R)-BEL ([4]; 3 min preincubation, FIG. 4A): 10 fold; selectivity for iPLA2β in comparison to iPLA2γ ([4]; in words): approximately an order of magnitude more selective; AVP-induced phosphorylation of ERK2 [5]: not effected; IC50 ([6]; 1 μM AVP, read-out: IC50, AVP-induced liberation of AA from A-10 cells): ~1000 nM; inhibition of AVP-induced AA release ([6]; 1 μM inhibitor, 20 min pretreatment, 1 μM AVP, FIG. 5): 50%; AVP-induced AA release (in words) ([6]; 5 μM inhibitor, 1 μM AVP, FIG. 5): completely attenuated

Q: `CCCCCCCC(=O)OC[C@H](CO)OC(=O)CCCCCCC` [DOG, 1,2-Dioctanoyl-sn-glycerol] was tested. Which “restoration of arachidonic acid release in (S)-BEL treated A-10 cells” value [6] did it give?
A: Neither PMA or DOG could restore

Q: How did the “restoration of arachidonic acid release in (S)-BEL treated A-10 cells” value [6] turn out when `CCCCCCCCCCCCCC(=O)O[C@@H]1[C@@H](C)[C@@]2(O)[C@@H](C=C(CO)C[C@]3(O)C(=O)C(C)=C[C@@H]23)[C@@H]2C(C)(C)[C@]12OC(C)=O` [PMA, Phorbol-12-myristate-13-acetate] was run?
A: Neither PMA or DOG could restore
